Where two headings read alike, the source gives them in different places. Positions of bridges follow the written chain, without caps; N, C: chain ends. Non-standard residues stand in square brackets, D forms with d. Residues, ends and D or L forms follow the SMILES beside them. *: point of attachment. boroAla((+)-pinanediol) = C[C@H](N*)B1O[C@@H]2C[C@@H]3C[C@@H](C3(C)C)[C@]2(C)O1; Biphenylcarbonyl(4'-Bu) = CCCCc1ccc(-c2ccc(C(=O)*)cc2)cc1; Aad = N[C@@H](CCCC(=O)O)C(=O)O; Orn = NCCC[C@H](N)C(=O)O
Legend:
[1] = target: T1, S. aureus SPase (Staphylococcus aureus, UniProt P0A070); experiment: SPase enzyme inhibition assay, fluorogenic peptide substrate, S. aureus; type: biochemical
T1 construct: Full length His-tagged E. coli and S. aureus SPase proteins were expressed in E. coli BL21; His tag; made in house; host or cells: E. coli BL21 (DE3)
T1 sequence (P0A070 1-191): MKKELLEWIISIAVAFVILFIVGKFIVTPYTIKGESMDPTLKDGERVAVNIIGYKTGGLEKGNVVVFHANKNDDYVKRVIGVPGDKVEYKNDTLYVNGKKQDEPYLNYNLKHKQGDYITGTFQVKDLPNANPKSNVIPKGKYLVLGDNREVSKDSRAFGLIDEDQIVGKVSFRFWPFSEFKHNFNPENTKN
Protocol: (§1) Briefly, for expression of E. coli SPase, saturated overnight cultures grown in 20 ml of Luria-Bertani medium supplemented with ampicillin were subcultures into 1.5 L of Luria-Bertani, and shaken at 37° C. until an optical density at 600 nm of 0.4-0.5 was achieved. […] S. aureus SPase was expressed and purified similarly, with the following exceptions. […] Resin bound protein was washed in a similar buffer containing 1% Elugent in place of Triton X-100 prior to protein elution in wash buffer supplemented with 300 mM imidazole. […] All protein concentrations were determined by BCA assay.
(§2) Enzyme master solution was prepared by diluting Escherichia coli or Staphylococcus aureus SPase protein into reaction buffer to a final concentration of 3 nM or 10 nM respectively. Reaction buffer consisted of 20 mM NaKHPO4 pH 7.4, 100 mM NaCl, and 1% v/v Elugent™ detergent. Reactions were initiated by the addition of substrate to a final concentration of 20 μM. Reaction progress was monitored by measuring the increase in fluorescence signal (excitation at 314 nm, emission at 416 nm) using a SpectraMax M2 fluorescence microplate reader. […] Three-folder serial dilutions of test compounds, starting at 10 μM, were prepared in enzyme mix solution and incubated at room temperature for 10 minutes. Following this incubation, fluorogenic substrate was added to a final concentration of 20 μM and the increase in fluorescence, corresponding to substrate cleavage, was monitored continuously at room temperature for 1 hour. Initial reaction rates were calculated based on the rate of increase in fluorescence during the reaction. Reaction rates were plotted as a function of compound concentration, and IC50 values were determined nonlinear regression analysis (SoftMaxPro 5.4, Molecular Devices™) of the sigmoidal dose-response curve.

[2] = target: T2, E. coli SPase (Escherichia coli, UniProt P00803); experiment: SPase enzyme inhibition assay, fluorogenic peptide substrate, E. coli; type: biochemical; conditions: 3 nM E. coli SPase, 20 μM substrate, 10 minutes pre-incubation, room temperature; read-out: IC 50 (nM) E. coli
T2 construct: Full length His-tagged E. coli and S. aureus SPase proteins were expressed in E. coli BL21; His tag; made in house; host or cells: E. coli BL21 (DE3)
Protocol: as §1, §2

[3] = system: Methicillin Resistant Staphylococcus aureus strain USA 300 (NRS384); experiment: MIC by broth micro-dilution (CLSI), S. aureus; type: cell-based; conditions: Staphylococcus aureus, MRSA / NRS 384 / USA300; MRSA USA 300 (NRS384); cation adjusted Mueller Hinton Broth + 0.002% Tween-80; 35° C., 22 hours; read-out: MIC (μg/mL) S. aureus
Protocol: In vitro antimicrobial activity of each compound was determined by measuring minimal inhibitor concentrations (MICs) using the broth micro-dilution technique as approved by the Clinical and Laboratory Standards Institute (CLSI) (Methods for Dilution Antimicrobial Susceptibility Tests for Bacteria that Grow Aerobically; Approved Standard—Eighth Edition. CLSI document M07-A8. Wayne, Pa.: Clinical and Laboratroy Standards; 2009). Antibacterial activity was measure against two strains of bacteria: a Methicillin Resistant Staphylococcus aureus strain USA 300 (NRS384) and a strain of Escherichia coli MC4100 harboring the IMP4213, which results in increased outer-membrane permeability (B Martin and Silhavy T. Imp/OstA is required for cell envelope biogenesis in Escherichia coli. (2002) Molecular Microbiology, 45(5), 1289-1302). Cells were inoculated onto plates of Trypyticase Soy Agar or Luria Agar respectively and grown at 35° C. for 20 hours. Inocula suspensions were prepared by scraping cells into 1 ml of testing media (cation adjusted Mueller Hinton Broth supplemented with 0.002% v/v Tween-80) and diluting to a final OD600 nm of 0.01.
Test compounds were prepared in DMSO at a concentration of 10 mg/ml. These compound stocks were diluted into testing media at a concentration of 64 μg/ml and serial 2-fold dilutions were made in the same media, in 96-well U bottom microtiter dishes, for a total of 10 compound concentrations. Inocula suspensions were added to the 2-fold serial dilutions of test compounds to a final density of OD OD600 nm of 0.0005 and incubated at 35° C. for 22 hours.

T2 sequence (P00803 whole entry): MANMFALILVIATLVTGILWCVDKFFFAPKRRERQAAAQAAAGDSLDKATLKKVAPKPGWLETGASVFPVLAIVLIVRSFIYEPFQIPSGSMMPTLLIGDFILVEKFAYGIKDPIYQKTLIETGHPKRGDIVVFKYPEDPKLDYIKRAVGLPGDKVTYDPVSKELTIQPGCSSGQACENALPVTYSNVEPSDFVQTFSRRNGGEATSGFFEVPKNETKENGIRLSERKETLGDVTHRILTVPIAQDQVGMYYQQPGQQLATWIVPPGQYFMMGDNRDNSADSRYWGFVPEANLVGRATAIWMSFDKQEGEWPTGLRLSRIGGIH

| Structure (SMILES) | IC50 [1] [nM] | IC50 [2] [nM] | MIC [3] [µg/mL] | IC50 ([1]; read-out: IC 50 (nM) S. aureus, 10 nM S. aureus SPase, 20 μM substrate, 10 minutes pre-incubation, room temperature) [nM] |
| --- | --- | --- | --- | --- |
| CCCCCCCC(=O)NCCC(=O)N[C@@H](CCCCN)C(=O)N(C)[C@@H]1C(=O)N[C@@H](C)C(=O)N[C@H](C(=O)N[C@@H](C)C(=O)N2CCC[C@H]2C(N)=O)Cc2ccc(O)c(c2)-c2cc1ccc2O [Compound 131] | 3.3 | 180 |  |  |
| CCCCc1ccc(-c2ccc(C(=O)N[C@@H](C)CC(=O)N[C@@H](CCCCN)C(=O)N(C)[C@@H]3C(=O)N[C@@H](C)C(=O)N[C@H](C(=O)O)Cc4ccc(O)c(c4)-c4cc3ccc4O)cc2)cc1 [Compound 107] | 2.6 | 0.6 | 11 |  |
| CCCCc1ccc(-c2ccc(C(=O)N[C@@H](CCCCN)C(=O)N[C@H]3COCCCCC[C@@H](C(=O)N[C@@H](C)B(O)O)NC(=O)[C@H](C)NC3=O)cc2)cc1 [Compound 205] |  | 30 | 2.8 | 280 |
| CCCCc1ccc(-c2ccc(C(=O)N[C@@H](CCCCN)C(=O)N[C@H]3CCC(=O)NCCC[C@@H](C(=O)N[C@@H](C)B4O[C@@H]5C[C@@H]6C[C@@H](C6(C)C)[C@]5(C)O4)NC(=O)[C@H](C)NC3=O)cc2)cc1 [Compound 202] ({Biphenylcarbonyl(4'-Bu)}-KEA[Orn]-{boroAla((+)-pinanediol)}; lactam 2-4) | 200 | 28 |  |  |
| CCCCc1ccc(-c2ccc(C(=O)N[C@@H](CCCCN)C(=O)NCCC(=O)N(C)[C@@H]3C(=O)N[C@@H](C)C(=O)N[C@H](C(=O)O)Cc4ccc(O)c(c4)-c4cc3ccc4O)cc2)cc1 [Compound 117] | 3900 | 760 | > 64 |  |
| CCCCCCCC(=O)NCCC(=O)N[C@@H](CCCCN)C(=O)N(C)[C@@H]1C(=O)N[C@@H](C)C(=O)N[C@H](C(=O)N[C@@H](C)B2O[C@@H]3C[C@@H]4C[C@@H](C4(C)C)[C@]3(C)O2)Cc2ccc(O)c(c2)-c2cc1ccc2O [Compound 123] | 18 | 20 | 64 |  |
| CCCCc1ccc(-c2ccc(C(=O)N(C)[C@@H]3C(=O)N[C@@H](C)C(=O)N[C@H](C(=O)O)Cc4ccc(O)c(c4)-c4cc3ccc4O)cc2)cc1 [Compound 116] | > 10000 | > 10000 | > 64 |  |
| CCCCc1ccc(-c2ccc(C(=O)N[C@@H](CCCCN)C(=O)N(C)[C@@H]3C(=O)N[C@@H](C)C(=O)N[C@H](C(=O)O)Cc4ccc(O)c(c4)-c4cc3ccc4O)cc2)cc1 [Compound 110] | 350 | 1.4 |  |  |
| CCCCCCCCCCCCCC(=O)N[C@@H](CCCCN)C(=O)N(C)[C@@H]1C(=O)N[C@@H](C)C(=O)N[C@H](C(=O)N[C@@H](C)B(O)O)Cc2ccc(O)c(c2)-c2cc1ccc2O [Compound 119] | 33 | 8.6 |  |  |
| CNC(=O)[C@@H]1CCCN1C(=O)[C@H](C)NC(=O)[C@@H]1Cc2ccc(O)c(c2)-c2cc(ccc2O)[C@H](N(C)C(=O)[C@H](CCCCN)NC(=O)c2ccc(-c3ccc(Cl)cc3)cc2)C(=O)N[C@@H](C)C(=O)N1 [Compound 136] | 47 | 44 |  |  |
| C[C@@H]1NC(=O)[C@@H](N(C)C(=O)[C@H](CCCCN)NC(=O)c2ccc(-c3ccc(Cl)cc3)cc2)c2ccc(O)c(c2)-c2cc(ccc2O)C[C@@H](C(=O)O)NC1=O [Compound 127] | 440 | 1.4 |  |  |
| CCCCc1ccc(-c2ccc(C(=O)N[C@@H](CCCCN)C(=O)N[C@H]3CCCC(=O)NCCCC[C@@H](C(=O)N[C@@H](C)B4O[C@@H]5C[C@@H]6C[C@@H](C6(C)C)[C@]5(C)O4)NC(=O)[C@H](C)NC3=O)cc2)cc1 [Compound 203] ({Biphenylcarbonyl(4'-Bu)}-K[Aad]AK-{boroAla((+)-pinanediol)}; lactam 2-4) | 81 | 8.9 |  |  |
| CCCCCCCC(=O)N[C@@H](CCCCN)C(=O)N(C)[C@@H]1C(=O)N[C@@H](C)C(=O)N[C@H](C(=O)O)Cc2ccc(O)c(c2)-c2cc1ccc2O [Compound 124] | 1000 | 23 |  |  |
| CCCCCCCC(=O)NCCC(=O)N[C@@H](CCCCN)C(=O)N(C)[C@@H]1C(=O)N[C@@H](C)C(=O)N[C@H](C(N)=O)Cc2ccc(O)c(c2)-c2cc1ccc2O [Compound 130] | 580 | 160 |  |  |
| CCCCc1ccc(-c2ccc(C(=O)NC[C@@H](C)C(=O)N[C@@H](CCCCN)C(=O)N(C)[C@@H]3C(=O)N[C@@H](C)C(=O)N[C@H](C(=O)N[C@@H](C)B4OC5C[C@@H]6C[C@@H](C6(C)C)[C@]5(C)O4)Cc4ccc(O)c(c4)-c4cc3ccc4O)cc2)cc1 (some centres unmarked) [Compound 120] | 220 | 18 |  |  |
| CCCCCCCC(=O)NCCC(=O)N[C@@H](CCCCN)C(=O)N(C)[C@@H]1C(=O)N[C@@H](C)C(=O)N[C@H](C(=O)O)Cc2ccc(O)c(c2)-c2cc1ccc2O [Compound 122] | 130 | 27 |  |  |
| C[C@@H]1NC(=O)[C@@H](N(C)C(=O)[C@H](CCCCN)NC(=O)c2ccc(-c3ccc(Cl)cc3)cc2)c2ccc(O)c(c2)-c2cc(ccc2O)C[C@@H](C(=O)N[C@@H](C)C(=O)N(C)C)NC1=O [Compound 137] | 3100 | 350 |  |  |
| CCCCc1ccc(-c2ccc(C(=O)N[C@@H](CCCCN)C(=O)N(C)[C@@H]3C(=O)N[C@@H](C)C(=O)N[C@H](C(=O)N[C@@H](C)B4O[C@@H]5C[C@@H]6C[C@@H](C6(C)C)[C@]5(C)O4)CCCCCc4cc3ccc4OC)cc2)cc1 [Compound 208] | > 10000 | 680 |  |  |
| CCCCCCCC(=O)NCCC(=O)N[C@@H](CCCCN)C(=O)N(C)[C@@H]1C(=O)N[C@@H](C)C(=O)N[C@H](C(=O)N[C@@H](C)C(N)=O)Cc2ccc(O)c(c2)-c2cc1ccc2O [Compound 129] | 140 | 370 |  |  |
| C[C@@H]1NC(=O)[C@@H](N(C)C(=O)[C@H](CCN)NC(=O)c2ccc(-c3ccc(Cl)cc3)cc2)c2ccc(O)c(c2)-c2cc(ccc2O)C[C@@H](C(=O)O)NC1=O [Compound 128] | 3500 | 1.5 |  |  |
| CCCCCCCCCCCCCC(=O)N[C@@H](CCCCN)C(=O)N(C)[C@@H]1C(=O)N[C@@H](C)C(=O)N[C@H](C(=O)NCB(O)O)Cc2ccc(O)c(c2)-c2cc1ccc2O [Compound 118] | 31 | 7.6 |  |  |
| CCCCCCCCCCCCCC(=O)N[C@@H](CCCCN)C(=O)N(C)[C@@H]1C(=O)N[C@@H](C)C(=O)N[C@H](C(=O)O)Cc2ccc(O)c(c2)-c2cc1ccc2O [Compound 111] | 160 | 2.2 |  |  |
| CCCCc1ccc(-c2ccc(C(=O)NC[C@@H](C)C(=O)N[C@@H](CCCCN)C(=O)N(C)[C@@H]3C(=O)N[C@@H](C)C(=O)N[C@H](C(=O)N[C@@H](C)C(=O)N4CCC[C@H]4C(N)=O)Cc4ccc(O)c(c4)-c4cc3ccc4O)cc2)cc1 [Compound 138] | 78 | 30 |  |  |
| CCCCc1ccc(-c2ccc(C(=O)N[C@@H](CCCCN)C(=O)N[C@H]3CCC(=O)NCCCC[C@@H](C(=O)N[C@@H](C)B4O[C@@H]5C[C@@H]6C[C@@H](C6(C)C)[C@]5(C)O4)NC(=O)[C@H](C)NC3=O)cc2)cc1 [Compound 201] ({Biphenylcarbonyl(4'-Bu)}-KEAK-{boroAla((+)-pinanediol)}; lactam 2-4) | 150 | 15 |  |  |
